Laboratory results reported in article PMC7365701 (Journal of medicinal chemistry, 2020).

How the values were obtained:
[1] = target: human ether-á-go-go (hERG) potassium channel (Homo sapiens, UniProt Q12809); assay: hERG automated whole cell patch-clamp; format: cell-based; conditions: tested at 0.1, 1 and 10 μM; ≥50% inhibition at 10 μM flagged as toxic
[2] = tested on: retinal vascular leakage in diabetic rats; assay: STZ-induced diabetic rat model, retinal vascular permeability; format: in vivo, Brown Norway rat; conditions: daily i.p. for 28 days
[3] = target: T1, human PPARα (hPPARα) (Homo sapiens, UniProt Q07869)
T1 sequence (Q07869 1-468): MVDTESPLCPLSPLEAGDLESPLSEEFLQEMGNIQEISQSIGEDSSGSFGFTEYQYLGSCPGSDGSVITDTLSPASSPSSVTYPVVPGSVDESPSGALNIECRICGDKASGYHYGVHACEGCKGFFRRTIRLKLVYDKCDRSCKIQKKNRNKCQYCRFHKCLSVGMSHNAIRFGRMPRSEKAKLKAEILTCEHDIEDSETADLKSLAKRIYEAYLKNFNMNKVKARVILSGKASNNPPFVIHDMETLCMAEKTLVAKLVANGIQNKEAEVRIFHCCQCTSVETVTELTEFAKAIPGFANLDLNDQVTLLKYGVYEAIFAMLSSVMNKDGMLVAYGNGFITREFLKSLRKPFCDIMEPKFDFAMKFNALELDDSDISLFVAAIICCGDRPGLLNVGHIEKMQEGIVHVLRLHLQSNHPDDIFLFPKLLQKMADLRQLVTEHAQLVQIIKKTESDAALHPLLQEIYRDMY

[4] = Stability in human liver microsomes; format: in vitro ADME; conditions: compared with 4a (A91)
[5] = target: T2, Ligand Binding Domain of PPARα (Homo sapiens, UniProt Q07869); assay: Isothermal titration calorimetry; conditions: 4b vs 4a; 4u vs 4b
T2 sequence (Q07869 239-466 limits assumed): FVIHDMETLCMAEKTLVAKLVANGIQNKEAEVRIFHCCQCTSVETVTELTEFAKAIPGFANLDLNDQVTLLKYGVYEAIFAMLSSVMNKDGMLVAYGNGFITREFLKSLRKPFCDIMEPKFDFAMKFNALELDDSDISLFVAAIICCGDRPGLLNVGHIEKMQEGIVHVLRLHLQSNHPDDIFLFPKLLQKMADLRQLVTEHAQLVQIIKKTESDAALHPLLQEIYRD

[6] = target: T1, human PPARα (hPPARα); assay: cell-based; conditions: EC50 hPPARα (cellular potency), luciferase reporter
[7] = tested on: cytochrome P450 isoforms (1A, 2C9, 2C19, 2D6, and 3A); assay: Time-dependent CYP inhibition in pooled human liver microsomes; format: in vitro ADME; conditions: 10 μM, pre-incubation ± NADPH
[8] = target: T3, PPARα (Homo sapiens, UniProt Q07869); assay: Cellular thermal shift assay; format: cell-based; conditions: MIO-M1 cells, 45.5 °C
T3 sequence (Q07869 1-468): T1 sequence (Q07869 1-468)

[9] = Stability in rat liver microsomes; format: in vitro ADME; conditions: compared with 4a (A91)

Chain of human ether-á-go-go (hERG) potassium channel (Q12809 whole entry): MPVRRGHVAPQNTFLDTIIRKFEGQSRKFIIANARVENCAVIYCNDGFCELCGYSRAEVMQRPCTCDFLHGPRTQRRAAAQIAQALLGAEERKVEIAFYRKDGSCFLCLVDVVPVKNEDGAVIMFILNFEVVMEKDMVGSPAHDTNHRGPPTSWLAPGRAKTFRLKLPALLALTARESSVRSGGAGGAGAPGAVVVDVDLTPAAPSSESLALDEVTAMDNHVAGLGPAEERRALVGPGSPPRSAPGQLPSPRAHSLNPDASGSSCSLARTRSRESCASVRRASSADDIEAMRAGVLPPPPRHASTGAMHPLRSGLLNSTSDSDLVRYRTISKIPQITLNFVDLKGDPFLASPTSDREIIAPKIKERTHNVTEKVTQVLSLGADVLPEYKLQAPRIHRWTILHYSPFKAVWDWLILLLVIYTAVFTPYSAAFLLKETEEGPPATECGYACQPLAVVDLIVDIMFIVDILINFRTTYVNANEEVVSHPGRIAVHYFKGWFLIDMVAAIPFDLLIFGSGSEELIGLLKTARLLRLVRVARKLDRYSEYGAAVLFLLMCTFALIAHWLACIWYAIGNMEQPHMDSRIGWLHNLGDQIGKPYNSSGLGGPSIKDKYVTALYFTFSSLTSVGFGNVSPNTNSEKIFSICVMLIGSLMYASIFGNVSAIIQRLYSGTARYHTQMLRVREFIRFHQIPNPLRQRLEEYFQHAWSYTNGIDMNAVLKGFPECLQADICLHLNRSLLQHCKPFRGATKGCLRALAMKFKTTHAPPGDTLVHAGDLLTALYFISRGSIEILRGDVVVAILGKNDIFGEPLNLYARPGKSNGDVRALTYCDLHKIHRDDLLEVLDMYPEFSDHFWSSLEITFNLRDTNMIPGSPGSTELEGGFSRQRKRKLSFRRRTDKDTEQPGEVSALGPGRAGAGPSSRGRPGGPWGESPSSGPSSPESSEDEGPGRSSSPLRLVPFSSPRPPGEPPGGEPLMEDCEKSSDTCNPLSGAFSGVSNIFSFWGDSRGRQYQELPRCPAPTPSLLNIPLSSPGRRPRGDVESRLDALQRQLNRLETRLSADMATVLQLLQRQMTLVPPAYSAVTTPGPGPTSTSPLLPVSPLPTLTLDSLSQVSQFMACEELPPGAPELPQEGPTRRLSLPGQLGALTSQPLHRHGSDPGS

Question: For `COc1ccc(COc2ccc(CNc3cccc(C(=O)O)c3)cc2)cc1` [Compound 4a, 3-((4-((4-methoxybenzyl)oxy)benzyl)amino)benzoic acid], which “hERG channel liability” value [1] is on record?
Answer: low potency

Question: What about the “hepatomegaly (liver phenotype)” value [2] of the same compound?
Answer: lack signs of hepatomegaly

Question: And the retinal vascular leakage ([2]; Evans blue tracer)?
Answer: reduces retinal vascular leakage in diabetic rats to the range of the non-diabetic cohort

Question: Which SI ([3]; SI = EC50 (PPARγ or PPARδ) / EC50 (PPARα)) does the source give for `O=C(O)c1cccc(NCc2ccc(OCc3ccc(F)cc3F)cc2)c1` [Compound 4j, 3-((4-((2,4-difluorobenzyl)oxy)benzyl)amino)benzoic acid] here?
Answer: >175

Question: And the “selectivity for hPPARα over other PPAR isoforms” value ([3]; over hPPARγ and hPPARδ, no agonism up to 100 μM)?
Answer: > 175 fold

Question: Which “Ratio (5/50)” value ([3]; ratio of relative light unit (RLU) signal at 5 μM and 50 μM compound) does the source give for `O=C(O)c1cc(Cl)cc(NCc2ccc(OCc3ccc(F)cc3)cc2)c1` [Compound 4r, 3-chloro-5-((4-((4-fluorobenzyl)oxy)benzyl)amino)benzoic acid] here?
Answer: 0.11

Question: With `Cc1cc(CNc2cccc(C(=O)O)c2)ccc1OCc1ccc(F)cc1` [Compound 4u, 3-((4-((4-fluorobenzyl)oxy)-3-methylbenzyl)amino)benzoic acid] as the compound, how does the “hERG channel liability” value [1] read?
Answer: not considered a hERG liability

Question: What about the “stability in liver microsomes” value [4] of the same compound?
Answer: significantly improved stability

Question: What about the “improvement in binding affinity” value [5] of the same compound?
Answer: ~ 38 fold

Question: And the EC50 [6]?
Answer: ~0.04 µM

Question: What about the “time-dependent (irreversible) inhibition of major CYP450 isoforms” value [7] of the same compound?
Answer: no signs of irreversible inhibition

Question: What about the “rescue of PPARα stability” value [8] of the same compound?
Answer: 3 fold

Question: What about the “stability in liver microsomes” value [9] of the same compound?
Answer: significantly improved stability
